In patent US10047105B2, “Gyrase inhibitors” (Merck Sharp & Dohme Corp., priority 2009, dated 2018):
Converted amounts (≈) assume the structure as drawn.

Experiments:
[1] = tested on: S. aureus ATCC 13709; assay: MIC, antibacterial potency, S. aureus; type: cell-based; conditions: S. aureus
[2] = tested on: S. pneumoniae ATCC 51916; assay: MIC, S. pneumoniae; type: cell-based; conditions: S. pneumoniae

| Structure (SMILES) | MIC, SA [1] [µg/mL] | MIC Spn52 [2] [µg/mL] |
| --- | --- | --- |
| CCc1[nH]c2nc(Sc3nc(C(=O)O)co3)nc(N3CC(O)C3)c2c1Cl.O=C(O)C(F)(F)F.O=C(O)C(F)(F)F [700,395] | > 64 | > 64 |
| CCc1[nH]c2nc(Sc3nc(C(=O)O)cs3)nc(N3CCOCC3)c2c1Cl.O=C(O)C(F)(F)F [700,396] | > 64 | > 64 |
| CCc1[nH]c2nc(Sc3nc(C(=O)NOC)cs3)nc(N3CCOCC3)c2c1Cl.O=C(O)C(F)(F)F [700,397] | > 64 | > 64 |
| CCc1[nH]c2nc(Sc3nc(C(=O)O)cs3)nc(N3CCNCC3)c2c1Cl.O=C(O)C(F)(F)F [700,398] | > 64 | > 64 |
| CCc1[nH]c2nc(Sc3cc(=O)n(CC(=O)O)c(=O)[nH]3)nc(N3CC(O)C3)c2c1Br [700,402] | > 64 | > 64 |
| CCc1[nH]c2nc(Sc3ccc4c(N5CCNCC5)ccnc4c3)nc(N3CC(O)C3)c2c1Br [700,403] | 4 (≈ 7.4 µM) | 8 (≈ 14.8 µM) |
| CCc1[nH]c2nc(Sc3cnc4nccnc4c3)nc(N3CC(NC(=O)OCc4ccccc4)C3)c2c1Br [700,404] | ≤ 0.5 | ≤ 0.5 |
| CCc1[nH]c2nc(Sc3cnc4c(c3)ncn4CC)nc(N3CC(O)C3)c2c1Br [700,405] | ≤ 0.5 | 2 (≈ 4.22 µM) |
| CCOc1nc(Nc2cnc3c(cnn3C(C)C)c2)nc2[nH]c(CC)c(Cl)c12.O=C(O)C(F)(F)F [700,406] | 2 | 16 |
| CCc1[nH]c2nc(Sc3nc(C(=O)O)cs3)nc(N(C)C)c2c1Cl.O=C(O)C(F)(F)F [700,407] | > 64 | > 64 |
| CCc1[nH]c2nc(Sc3nc(C(=O)O)cs3)nc(N3CCCC(CO)C3)c2c1Cl.O=C(O)C(F)(F)F (centres unmarked) [700,408] | > 64 | > 64 |
| CCc1[nH]c2nc(Oc3cccnc3)nc(Oc3cccnc3)c2c1Cl.O=C(O)C(F)(F)F [700,410] | 1 | 4 |
| CCc1[nH]c2nc(Sc3cc(OC)nc(OC)n3)nc(N3CC(O)C3)c2c1Cl.Cl.Cl [700,411] | > 64 | > 64 |
| CCc1[nH]c2nc(Sc3cc(=O)n(CCC4CCCCC4)c(=O)[nH]3)nc(N3CC(O)C3)c2c1Br [700,412] | > 64 | > 64 |
| CCCn1c(=O)cc(Sc2nc(N3CC(O)C3)c3c(Br)c(CC)[nH]c3n2)[nH]c1=O [700,414] | ≤ 0.5 | 1 (≈ 2.08 µM) |
| CCc1[nH]c2nc(Sc3cc(=O)n(CCC(F)(F)F)c(=O)[nH]3)nc(N3CC(O)C3)c2c1Br [700,415] | ≤ 0.5 | 1 (≈ 1.87 µM) |
| CCc1[nH]c2nc(Sc3cc(=O)n(CC4CC4)c(=O)[nH]3)nc(N3CC(O)C3)c2c1Br [700,416] | ≤ 0.5 | 2 (≈ 4.05 µM) |
| CCOc1ccc(Nc2nc(OCC)c3c(Br)c(CC)[nH]c3n2)cn1.O=C(O)C(F)(F)F [700,417] | 1 | 16 |
| CCCn1c(=O)cc(Sc2nc(N3CC(O)C3)c3c(Cl)c(CC)[nH]c3n2)[nH]c1=O [700,418] | 1 (≈ 2.29 µM) | 8 (≈ 18.3 µM) |
| CCc1[nH]c2nc(Sc3cnc(C#N)c(F)c3)nc(N3CC(O)C3)c2c1Cl.O=C(O)C(F)(F)F.O=C(O)C(F)(F)F [700,422] | > 64 | > 64 |
| CCc1[nH]c2nc(Sc3cnc4nccnc4c3)nc(N3CCOCC3)c2c1Br [700,423] | 1 (≈ 2.12 µM) | 2 (≈ 4.23 µM) |
| CCc1[nH]c2nc(Sc3cnc4nccnc4c3)nc(N3CCOCC3)c2c1Cl [700,424] | ≤ 0.5 | 1 (≈ 2.34 µM) |
| CCc1[nH]c2nc(Sc3cnc4nccnc4c3)nc(N3CCCC(CO)C3)c2c1Cl (centres unmarked) [700,425] | ≤ 0.5 | 2 (≈ 4.39 µM) |

| Structure (SMILES) | MIC, SA [1] [µg/mL] | MIC Spn52 [2] [µg/mL] |
| --- | --- | --- |
| CCc1[nH]c2nc(Sc3cnc4nccnc4c3)nc(N3CCC[C@H]3CO)c2c1Cl [700,426] | 1 (≈ 2.26 µM) | 1 (≈ 2.26 µM) |
| CCc1[nH]c2nc(Sc3cnc4nccnc4c3)nc(N3CC[C@H](O)C3)c2c1Cl [700,427] | ≤ 0.5 | 1 (≈ 2.34 µM) |
| CCc1[nH]c2nc(Sc3cnc4nccnc4c3)nc(N3CC[C@@H](O)C3)c2c1Cl [700,428] | ≤ 0.5 | 1 (≈ 2.34 µM) |
| CCc1[nH]c2nc(Sc3cnc4nccnc4c3)nc(N3CCC(N4CCOCC4)C3)c2c1Cl (centres unmarked) [700,429] | ≤ 0.5 | 2 (≈ 4.02 µM) |
| CCc1[nH]c2nc(Sc3cnc4nccnc4c3)nc(N3CC[C@@H](N(C)C)C3)c2c1Cl [700,430] | 32 (≈ 70.3 µM) | 32 (≈ 70.3 µM) |
| CCc1[nH]c2nc(Sc3cnc4nccnc4c3)nc(N(C)CC(O)C(O)C(O)C(O)CO)c2c1Cl (centres unmarked) [700,431] | > 64 | > 64 |
| CCc1[nH]c2nc(Sc3cnc4nccnc4c3)nc(Oc3cccnc3)c2c1Cl [700,432] | 1 (≈ 2.29 µM) | 4 (≈ 9.18 µM) |
| CCc1[nH]c2nc(Sc3cc(=O)n(C)c(=O)[nH]3)nc(N3CC(O)C3)c2c1Br [700,433] | ≤ 0.5 | 1 (≈ 2.21 µM) |
| CCc1[nH]c2nc(Sc3cnc4nccnc4c3)nc(N3CC(NS(C)(=O)=O)C3)c2c1Cl [700,435] | ≤ 0.5 | 1 (≈ 2.04 µM) |
| CCc1[nH]c2nc(Sc3cnc4nccnc4c3)nc(N3CC(NS(=O)(=O)CC(F)(F)F)C3)c2c1Cl [700,436] | ≤ 0.5 | 1 (≈ 1.79 µM) |
| CCc1[nH]c2nc(Sc3cnc4nccnc4c3)nc(N3CC(NS(=O)(=O)c4cnoc4C)C3)c2c1Cl [700,437] | ≤ 0.5 | 2 (≈ 3.58 µM) |
| CCc1[nH]c2nc(Sc3cnc4nccnc4c3)nc(N3CC(NC(=O)COC)C3)c2c1Cl [700,438] | ≤ 0.5 | 1 (≈ 2.06 µM) |
| CCc1[nH]c2nc(Sc3cnc4nccnc4c3)nc(N3CC(NC(=O)c4cnccn4)C3)c2c1Cl [700,439] | ≤ 0.5 | 1 (≈ 1.93 µM) |
| CCc1[nH]c2nc(Sc3cnc4nccnc4c3)nc(N3CC(NC(=O)C4CC4)C3)c2c1Cl [700,440] | ≤ 0.5 | ≤ 0.5 |
| CCc1[nH]c2nc(Sc3cnc4nccnc4c3)nc(N3CC(NC(C)=O)C3)c2c1Cl [700,441] | ≤ 0.5 | 2 (≈ 4.4 µM) |
| CCc1[nH]c2nc(Sc3cc(=O)n(CC(C)=O)c(=O)[nH]3)nc(N3CC(O)C3)c2c1Br [700,442] | ≤ 0.5 | 2 (≈ 4.04 µM) |
| CCOc1nc(Nc2ccc3nccnc3c2)nc2[nH]c(CC)c(Br)c12.O=C(O)C(F)(F)F [700,443] | > 64 | > 64 |
| CCc1[nH]c2nc(Sc3cnc4nccnc4c3)nc(N3CCN(CCN)CC3)c2c1Cl.O=C(O)C(F)(F)F [700,444] | 4 | 8 |
| CCc1[nH]c2nc(Sc3cnc4nccnc4c3)nc(N3CCN(CCO)CC3)c2c1Cl.O=C(O)C(F)(F)F [700,445] | 16 | 16 |
| CCc1[nH]c2nc(Sc3cnc4c(N)nc(N)nc4c3)nc(N3CC(O)C3)c2c1Cl.O=C(O)C(F)(F)F.O=C(O)C(F)(F)F [700,448] | 1 | 2 |
| CCc1[nH]c2nc(Sc3cnc4nccnc4c3)nc(N3CC(NC(=O)c4cnc[nH]4)C3)c2c1Cl [700,449] | 1 (≈ 1.97 µM) | 1 (≈ 1.97 µM) |
| CCOc1nc(Nc2cnc3c(c2)nnn3C(C)C)nc2[nH]c(CC)c(Br)c12.O=C(O)C(F)(F)F [700,450] | ≤ 0.5 | 4 |
| CCc1[nH]c2nc(Sc3cc(=O)n(CC(C)O)c(=O)[nH]3)nc(N3CC(O)C3)c2c1Br (centres unmarked) [700,451] | 1 (≈ 2.01 µM) | 4 (≈ 8.04 µM) |
